The text below walks through data of ChEMBL document CHEMBL1649071, “4-[18F]fluoroglutamic acid (BAY 85-8050), a new amino acid radiotracer for PET imaging of tumors: synthesis and in vitro characterization” (J Med Chem, 2011).

Assay type in all cases: ADME, cell-based; call rule not given here
In data set [1] the test system is A549. Briefly: Drug uptake in human A549 cells at 250 kBq after 30 mins by gamma-counting. The note with it: a549, 0.5 h.
Data set [2] relates to A549. Briefly: Drug uptake in human A549 cells at 250 kBq after 30 mins by gamma-counting in presence of D-glucose. The note with it: a549, 0.5 h.
In data set [3] the test system is HT-29. Nature of the data set: Drug uptake in human HT-29 cells at 250 kBq after 20 mins by gamma-counting in presence of D-glucose. The note with it: ht-29, 20 min.
In data set [4] the test system is A549. Nature of the data set: Drug uptake in human A549 cells at 250 kBq by gamma-counting. The note with it: TDE = time-dependent effect.
In data set [5] the test system is HT-29. Nature of the data set: Drug uptake in human HT-29 cells at 250 kBq after 20 mins by gamma-counting. The settings on record: ht-29, 20 min.
In data set [6] the test system is A549. Nature of the data set: Drug uptake in human A549 cells at 250 kBq after 30 mins by gamma-counting in presence of L-glutamic acid. The settings on record: a549, 0.5 h.
Data set [7] concerns HT-29. Briefly: Drug uptake in human HT-29 cells at 250 kBq after 20 mins by gamma-counting in presence of L-glutamic acid. The settings on record: ht-29, 20 min.
Data set [8] relates to A549. Nature of the data set: Drug uptake in human A549 cells at 250 kBq after 20 mins by gamma-counting. The settings on record: a549, 20 min.

On to `N[C@@H](C[C@@H](F)C(=O)O)C(=O)O`, for which the Drug uptake result in the data set with A549 [1] was “Active”.

For `OC[C@H]1O[C@@H](O)[C@H]([18F])[C@@H](O)[C@@H]1O` [FLUDEOXYGLUCOSE-F18], the Drug uptake entry in the data set with A549 [2] and in the data set on HT-29 [3] was “Not Active” each time.

As to `N[C@@H](CC([18F])C(=O)O)C(=O)O` (stereo not given in full), the Drug uptake entry in the data set with A549 [4] is “tde”; with A549 [1], 12%; in the data set on HT-29 [5], 4%; with A549 [6], “Not Active”; in the data set with HT-29 [7] it was “Not Active”; with A549 [8], 9.3%.

Turning to `N[C@@H](C[C@H](F)C(=O)O)C(=O)O`, the Drug uptake result with A549 [1] was “Active”.
